This note sets out measurements from patent publication US7186743B2, “Substituted pyrazolyl compounds for the treatment of inflammation” (Pharmacia Corporation, priority 2001, dated 2007).

One series addresses T1, IKK2 (Homo sapiens, UniProt O14920).
T1 construct: made in house; host or cells: insect cells (baculovirus, pFastBac; SF9)
T1 sequence (O14920 1-756): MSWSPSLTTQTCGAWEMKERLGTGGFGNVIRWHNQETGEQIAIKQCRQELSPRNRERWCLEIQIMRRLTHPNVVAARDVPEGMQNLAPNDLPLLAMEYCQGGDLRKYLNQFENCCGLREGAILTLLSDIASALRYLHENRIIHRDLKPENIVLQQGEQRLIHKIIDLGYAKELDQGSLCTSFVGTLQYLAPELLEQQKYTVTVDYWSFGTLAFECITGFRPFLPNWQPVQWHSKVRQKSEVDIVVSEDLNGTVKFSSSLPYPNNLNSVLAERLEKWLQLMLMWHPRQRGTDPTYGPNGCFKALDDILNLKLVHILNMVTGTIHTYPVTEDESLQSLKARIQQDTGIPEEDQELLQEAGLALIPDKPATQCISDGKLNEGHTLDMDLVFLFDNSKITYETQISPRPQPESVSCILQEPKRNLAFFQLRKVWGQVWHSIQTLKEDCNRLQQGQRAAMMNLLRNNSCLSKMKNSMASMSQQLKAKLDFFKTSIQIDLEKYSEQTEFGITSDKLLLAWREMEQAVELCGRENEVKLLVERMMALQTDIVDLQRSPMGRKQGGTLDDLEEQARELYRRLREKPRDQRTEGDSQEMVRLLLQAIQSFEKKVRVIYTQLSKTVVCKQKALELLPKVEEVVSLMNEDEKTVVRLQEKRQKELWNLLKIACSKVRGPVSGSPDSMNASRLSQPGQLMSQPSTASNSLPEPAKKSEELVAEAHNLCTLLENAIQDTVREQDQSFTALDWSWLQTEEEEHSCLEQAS
Put plainly: IKKβ Resin Enzyme Assay (IKK2 resin). Format: biochemical. The method in brief: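 Enzyme: human IKK2 with a C-terminal FLAG tag, baculovirus-expressed, purified as homodimer on anti-FLAG resin. It phosphorylates a biotinylated IκBα peptide with 1 μM ATP plus [γ-33P]ATP in 25 mM Hepes pH 7.6, Mg/Mn, for 30 min at 25° C. Incorporation is counted by scintillation after anion-exchange resin stop.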

[1] abbreviates: Table 5, read-out: IKK2 Resin Avg. IC50.
[2] abbreviates: Table 7, read-out: IKK2 Resin IC50.

Structures are written as SMILES. Read-outs that look alike come from different tables or passages of the source.

Turning to `NC(=O)c1nn(-c2ccc3c(c2)OCO3)c2c1CCc1ccc(NC(=O)c3cccnc3Cl)cc1-2` [Example 161, 1-(1,3-benzodioxol-5-yl)-8-{[(2-chloropyridin-3-yl)carbonyl]amino}-4,5-dihydro-1H-benzo[g]indazole-3-carboxamide], the melting point was in the range of 165 to 166 °C. Further, the IC50 at IKK2 (Table 4, read-out: IKK2 Resin IC50) was not above 1000 nM.

`CNc1ncccc1C(=O)Nc1ccc2c(c1)-c1c(c(C(N)=O)nn1-c1ccc3c(c1)OCO3)CC2` [Example 207, 1-(1,3-benzodioxol-5-yl)-8-({[2-(methylamino)pyridin-3-yl]carbonyl}amino)-4,5-dihydro-1H-benzo[g]indazole-3-carboxamide] had a melting point of 273 to 275 °C. Further, the IC50 on IKK2 (setting [1]) is not above 1000 nM.

In the case of `NC(=O)c1nn(-c2ccc3c(c2)OCO3)c2c1CCc1ccc(NC(=O)c3cccnc3NCCO)cc1-2` [Example 208, 1-(1,3-benzodioxol-5-yl)-8-[({2-[(2-hydroxyethyl)amino]pyridin-3-yl}carbonyl)amino]-4,5-dihydro-1H-benzo[g]indazole-3-carboxamide], the melting point fell in the range of 250 to 253 °C. Further, the IC50 at IKK2 (setting [1]) is not above 1000 nM.

`NC(=O)c1nn(-c2ccc3c(c2)OCO3)c2c1CCc1ccc(NC(=O)c3cc(Cl)ncc3Cl)cc1-2` [Example 211, 1-(1,3-benzodioxol-5-yl)-8-[(2,5-dichloroisonicotinoyl)amino]-4,5-dihydro-1H-benzo[g]indazole-3-carboxamide] registered a melting point of 292 to 293 °C.

`NC(=O)c1nn(-c2ccc3c(c2)OCO3)c2c1CCc1ccc(NC(=O)c3cc(N4CCOCC4)ncc3Cl)cc1-2` [Example 212, 1-(1,3-benzodioxol-5-yl)-8-[(5-chloro-2-morpholin-4-ylisonicotinoyl)amino]-4,5-dihydro-1H-benzo[g]indazole-3-carboxamide] displayed a melting point of 269 to 271 °C. Further, on IKK2 (setting [1]), the IC50 was not above 1000 nM.

The compound `CN1CCN(c2cc(C(=O)Nc3ccc4c(c3)-c3c(c(C(N)=O)nn3-c3ccc5c(c3)OCO5)CC4)c(Cl)cn2)CC1` [Example 214, 1-(1,3-benzodioxol-5-yl)-8-{[5-chloro-2-(4-methylpiperazin-1-yl)isonicotinoyl]amino}-4,5-dihydro-1H-benzo[g]indazole-3-carboxamide] yielded a melting point of 305 to 307 °C.

For the compound `NC(=O)c1nn(-c2ccc3c(c2)OCO3)c2c1CCc1ccc(NC(=O)c3nc(Cl)ccc3Cl)cc1-2` [Example 216, 1-(1,3-benzodioxol-5-yl)-8-{[(3,6-dichloropyridin-2-yl)carbonyl]amino}-4,5-dihydro-1H-benzo[g]indazole-3-carboxamide], the melting point was 263 to 265 °C.

Take `NC(=O)c1nn(-c2ccc3c(c2)OCO3)c2c1CCc1ccc(NC(=O)c3nc(N4CCOCC4)ccc3Cl)cc1-2` [Example 219, 1-(1,3-benzodioxol-5-yl)-8-{[(3-chloro-6-morpholin-4-ylpyridin-2-yl)carbonyl]amino}-4,5-dihydro-1H-benzo[g]indazole-3-carboxamide]: the melting point was 260 to 262 °C (dec.). Besides, the IC50 on IKK2 (setting [1]) was not above 1000 nM.

Consider `CNc1ccc(Cl)c(C(=O)Nc2ccc3c(c2)-c2c(c(C(N)=O)nn2-c2ccc4c(c2)OCO4)CC3)n1` [Example 220, 1-(1,3-benzodioxol-5-yl)-8-({[3-chloro-6-(methylamino)pyridin-2-yl]carbonyl}amino)-4,5-dihydro-1H-benzo[g]indazole-3-carboxamide], for which the melting point is 269 to 270 °C (dec.). Moreover, the IC50 on IKK2 (setting [1]) was not above 1000 nM.

As for `NC(=O)c1nn(-c2ccc(F)cc2)c2c1CCc1ccc(NC(=O)c3cccnc3N3CCNCC3)cc1-2` [Example 245, 1-(4-fluorophenyl)-8-{[(2-piperazin-1-ylpyridin-3-yl)carbonyl]amino}-4,5-dihydro-1H-benzo[g]indazole-3-carboxamide], the melting point lay in the range of 156 to 157 °C. The IC50 on IKK2 (setting [2]) was not above 1000 nM.

`Cc1cc(Cl)ncc1C(=O)Nc1ccc2c(c1)-c1c(c(C(N)=O)nn1-c1ccc(F)cc1)CC2` [Example 246, 8-{[(6-chloro-4-methylpyridin-3-yl)carbonyl]amino}-1-(4-fluorophenyl)-4,5-dihydro-1H-benzo[g]indazole-3-carboxamide] returned a melting point of 280 to 284 °C. On IKK2 (setting [2]), the concentration for half-maximal inhibition (IC50) was not above 1000 nM.

As for `Cc1cc(N2CCOCC2)ncc1C(=O)Nc1ccc2c(c1)-c1c(c(C(N)=O)nn1-c1ccc(F)cc1)CC2` [Example 247, 1-(4-fluorophenyl)-8-{[(4-methyl-6-morpholin-4-ylpyridin-3-yl)carbonyl]amino}-4,5-dihydro-1H-benzo[g]indazole-3-carboxamide], the melting point is 301 °C (dec.). The IC50 at IKK2 (setting [2]) is not above 1000 nM.

The compound `NC(=O)c1nn(-c2ccc(F)cc2)c2c1CCc1ccc(NC(=O)c3cc(N4CCOCC4)ncc3Cl)cc1-2` [Example 249, 8-[(5-chloro-2-morpholin-4-ylisonicotinoyl)amino]-1-(4-fluorophenyl)-4,5-dihydro-1H-benzo[g]indazole-3-carboxamide] showed a melting point of 309 to 313 °C. Also, the 50% inhibitory concentration (IC50) at IKK2 (setting [2]) is not above 1000 nM.

The compound `CN1CCN(c2cc(C(=O)Nc3ccc4c(c3)-c3c(c(C(N)=O)nn3-c3ccc(F)cc3)CC4)ccn2)CC1` [Example 251, 1-(4-fluorophenyl)-8-{[2-(4-methylpiperazin-1-yl)isonicotinoyl]amino}-4,5-dihydro-1H-benzo[g]indazole-3-carboxamide] showed a melting point of 277 to 279 °C. At IKK2 (setting [2]), the IC50 is not above 1000 nM.

The compound `NC(=O)c1nn(-c2ccc(F)cc2)c2c1CCc1ccc(NC(=O)c3nc(N4CCOCC4)ccc3Cl)cc1-2` [Example 255, 8-{[(3-chloro-6-morpholin-4-ylpyridin-2-yl)carbonyl]amino}-1-(4-fluorophenyl)-4,5-dihydro-1H-benzo[g]indazole-3-carboxamide] yielded a melting point of 252 to 254 °C. Moreover, on IKK2 (setting [2]), the IC50 was not above 1000 nM.
